According to patent US8106214B2, “2-imino-4-(thio) oxo-5-polycyclovinylazolines for use as PI3 kinase inhibitors” (Merck Serono SA, priority 2003, dated 2012):
Like-named read-outs stand apart in the source and are kept apart here.

Tests used:
[1] = tested on: C5a-mediated AKT phosphorylation in Raw 264-7 macrophages; experiment: Cell based ELISA: Akt/PKB phosphorylation in macrophages after C5a stimulation; conditions: Mus musculus, RAW264.7, 5 min; compound at 10 μM; Raw 264-7 macrophages stimulated with 50 nM C5a for 5 minutes; read-out: percentage of inhibition of C5a-mediated AKT phosphorylation
Procedure: b) Cell Based ELISA to Monitor PI3K Inhibition:
Measurement of Akt/PKB phosphorylation in macrophages after stimulation with human recombinant Complement 5a (C5a) from Sigma (C5788): Raw 264: Raw 264-7 macrophages (cultured in DMEM-F12 medium containing 10% Fetal Calf serum and antibiotics) are plated at 20,000 cells/well in a 96 MTP 24 h before cell stimulation. Previous to the stimulation with 50 nM of Complement 5a during 5 minutes, Cells are serum starved for 2 h, and pre-treated with inhibitors for 20 minutes. After stimulation cells are fixed in 4% formaldehyde for 20 minutes and washed 3 times in PBS containing 1% Triton X-100 (PBS/Triton). Endogenous peroxidase is blocked by a 20 minutes incubation in 0.6% H2O2 and 0.1% Sodium Azide in PBS/Triton and washed 3 times in PBS/Triton. Cells are then blocked by 60 minutes incubation with 10% foetal calf serum in PBS/Triton. Next, phosphorylated AKWPKB is detected by an overnight incubation at 4° C. with first antibody (anti phospho Serine 473 Akt IHC, Cell Signalling) diluted 800-fold in PBS/Triton, containing 5% bovine serum albumin (BSA). […] The reaction is stopped by addition of 50 μl of 1 M SO4H2 and absorbance is read at 450 nm. […]

[2] = biological target: Human recombinant GST-PI3Kγ (Homo sapiens, UniProt P48736); experiment: High Throughput PI3K Lipid Kinase Assay (SPA, neomycin-coated beads); type: biochemical
Sequence of Human recombinant GST-PI3Kγ (P48736 whole entry): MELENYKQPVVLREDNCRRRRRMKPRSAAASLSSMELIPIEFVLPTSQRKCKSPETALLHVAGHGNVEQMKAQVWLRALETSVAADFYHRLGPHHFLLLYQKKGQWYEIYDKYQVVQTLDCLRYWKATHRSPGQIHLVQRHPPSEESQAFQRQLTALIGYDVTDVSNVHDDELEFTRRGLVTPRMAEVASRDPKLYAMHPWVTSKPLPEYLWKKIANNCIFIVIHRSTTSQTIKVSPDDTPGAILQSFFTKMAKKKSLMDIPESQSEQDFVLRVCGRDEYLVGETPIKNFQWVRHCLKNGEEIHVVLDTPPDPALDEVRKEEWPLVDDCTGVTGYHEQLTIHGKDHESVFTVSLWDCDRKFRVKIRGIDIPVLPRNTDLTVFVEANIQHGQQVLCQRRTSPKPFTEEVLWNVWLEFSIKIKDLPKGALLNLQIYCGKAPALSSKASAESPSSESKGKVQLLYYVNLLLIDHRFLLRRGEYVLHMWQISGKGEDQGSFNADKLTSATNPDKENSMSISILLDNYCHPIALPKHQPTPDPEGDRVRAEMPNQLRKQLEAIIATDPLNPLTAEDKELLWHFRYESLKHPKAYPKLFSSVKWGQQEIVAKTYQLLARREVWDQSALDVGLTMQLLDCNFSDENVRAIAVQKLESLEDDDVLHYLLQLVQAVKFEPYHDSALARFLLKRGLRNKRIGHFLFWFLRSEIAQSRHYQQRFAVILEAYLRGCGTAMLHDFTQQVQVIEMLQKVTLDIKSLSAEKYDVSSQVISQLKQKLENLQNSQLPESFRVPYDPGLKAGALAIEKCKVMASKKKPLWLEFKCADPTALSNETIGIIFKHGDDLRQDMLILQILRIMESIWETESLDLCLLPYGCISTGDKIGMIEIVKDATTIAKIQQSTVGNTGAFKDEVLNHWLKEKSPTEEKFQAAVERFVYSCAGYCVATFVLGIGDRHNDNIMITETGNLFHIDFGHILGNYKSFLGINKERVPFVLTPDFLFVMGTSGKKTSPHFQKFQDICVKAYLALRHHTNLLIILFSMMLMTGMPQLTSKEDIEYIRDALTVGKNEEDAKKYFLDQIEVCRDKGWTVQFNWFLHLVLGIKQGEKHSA
Procedure: a) High Throughput PI3K Lipid Kinase Assay (Binding Assay):
The assay combines the scintillation proximity assay technology (SPA, Amersham) with the capacity of neomycin (a polycationic antibiotic) to bind phospholipids with high affinity and specificity. The Scintillation Proximity Assay is based on the properties of weakly emitting isotopes (such as ^3H, ^125I, ^33P). Coating SPA beads with neomycin allows the detection of phosphorylated lipid substrates after incubation with recombinant PI3K and radioactive ATP in the same well, by capturing the radioactive phospholipids to the SPA beads through their specific binding to neomycin.
To a 384 wells MTP containing 5 μl of the test compound of Formula (D) (solubilized in 6% DMSO; to yield a concentration of 100, 30, 10, 3, 1, 0.3, 0.1, 0.03, 0.01, 0.001 μM of the test compound), the following assay components are added. 1) 5 μl (58 ng) of Human recombinant GST-PI3Kγ (in Hepes 40 mM, pH 7.4, DTT 1 mM and ethylenglycol 5%) 2) 10 μl of lipid micelles and 3) 10 μl of Kinase buffer ([^33P]γ-ATP 45 μM/60 nCi, MgCl2 30 mM, DTT 1 mM, β-Glycerophosphate 1 mM, Na3VO4 100 μM, Na Cholate 0.3%, in Hepes 40 mM, pH 7.4). After incubation at room temperature for 180 minutes, with gentle agitation, the reaction is stopped by addition of 60 μl of a solution containing 100 μg of neomycin-coated PVT SPA beads in PBS containing ATP 10 mM and EDTA 5 mM. The assay is further incubated at room temperature for 60 minutes with gentle agitation to allow binding of phospholipids to neomycin-SPA beads. After precipitation of the neomycin-coated PVT SPA beads for 5 minutes at 1500×g, radioactive PtdIns(3)P is quantified by scintillation counting in a Wallac MicroBeta™ plate counter.
The values indicated in respect of PI3Kγ refer to the IC50 (μM), i.e. the amount necessary to achieve 50% inhibition of said target. Said values show a considerable potency of the 2-imino-azolinone-vinyl fused-benzene compounds with regard to PI3Kγ.

[3] = tested on: Class I PI3-kinases; conditions: cited from earlier work

O=C1N/C(=N\S(=O)(=O)c2ccccc2)S/C1=C\c1ccc2c(c1)OCO2 [Example 8, N-(5-Benzo[1,3]dioxol-5-ylmethylene-4-oxo-thiazolidin-2-ylidene)-benzenesulfonamide]
inhibition at 10 µM [1]: 100%

CS(=O)(=O)/N=C1\NC(=O)/C(=C/c2ccc3c(c2)OCO3)S1 [Example 10, N-(5-Benzo[1,3]dioxol-5-ylmethylene-4-oxo-thiazolidin-2-ylidene)-methanesulfonamide]
inhibition at 10 µM [1]: 80%

COC(=O)c1sccc1S(=O)(=O)N=C1NC(=O)/C(=C/c2ccc3ncccc3c2)S1 [Example 16, 3-(4-Oxo-5-quinolin-6-ylmethylene-thiazolidin-2-ylidenesulfamoyl)-thiophene-2-carboxylic acid methyl ester]
IC50 [2]: < 1 µM

CO/N=C1\NC(=O)/C(=C/c2ccc3c(c2)OCO3)S1 [Example 20, 5-Benzo[1,3]dioxol-5-ylmethylene-thiazolidine-2,4-dione 2-(O-methyl-oxime)]
IC50 [2]: < 1 µM

N#CN=C1NC(=O)/C(=C/c2ccc3nccnc3c2)S1 [Example 21, 4-Oxo-5-quinoxalin-6-ylmethylene-thiazolidin-2-ylidene-cyanamide]
IC50 [2]: < 1 µM

O=C1NC(=NCc2ccccc2)S/C1=C\c1ccc2c(c1)OCO2 [Example 22, 5-Benzo[1,3]dioxol-5-ylmethylene-2-benzylimino-thiazolidin-4-one]
IC50 [2]: < 1.5 µM

CN=C1NC(=O)/C(=C/c2ccc3ncnc(N(C)C)c3c2)S1 [Example 26, 5-(4-Dimethylamino-quinazolin-6-ylmethylene)-2-methylimino-thiazolidin-4-one]
IC50 [2]: < 1 µM

O=c1cc(N2CCOCC2)oc2c(-c3ccccc3)cccc12 [LY294002]
IC50 ([3]; Fruman et al. 1998, read-out: IC50 values against each of these PI3-kinases): 15 to 20 µM

wortmannin
IC50 ([3]; read-out: IC50 values against each of the various Class I PI3-kinases): 0.001 to 0.01 µM
